Results taken from ChEMBL document CHEMBL5532756, “Phenylthiazoles with potent & optimum selectivity toward Clostridium difficile” (RSC Med Chem, 2024).
Values after ≈ are worked out from the molar mass of the structure shown.

Key:
Type in all cases: functional
Neisseria gonorrhoeae = assay: Antimicrobial activity against Neisseria gonorrhoeae 194
Staphylococcus aureus = assay: Antimicrobial activity against methicillin-resistant Staphylococcus aureus USA300
Escherichia coli [1] = assay: Antimicrobial activity against Escherichia coli BW25113
Escherichia coli [2] = assay: Antimicrobial activity against Escherichia coli JW55031 harboring TolC mutant
Candida albicans = assay: Antimicrobial activity against Candida albicans ATCC 64124
Clostridioides difficile = assay: Antimicrobial activity against Clostridioides difficile ATCC BAA-1870

Compound	MIC (Neisseria gonorrhoeae)	MIC (Staphylococcus aureus)	MIC (Escherichia coli [1])	MIC (Escherichia coli [2])	MIC (Candida albicans)	MIC (Clostridioides difficile)
Cc1nc(-c2ccc3ccccc3c2)sc1-c1ccnc(N2CCC[C@@H]2C(N)=O)n1	> 64 µg/mL	> 64 µg/mL	> 64 µg/mL	64 µg/mL (≈ 154 µM)	> 64 µg/mL	64 µg/mL (≈ 154 µM)
Cc1nc(-c2ccc3ccccc3c2)sc1-c1ccnc(NCCO)n1	> 64 µg/mL	> 64 µg/mL	> 64 µg/mL	> 64 µg/mL	1 µg/mL (≈ 2.76 µM)	64 µg/mL (≈ 177 µM)
Cc1nc(-c2ccc3ccccc3c2)sc1-c1ccnc(NC[C@H](O)CO)n1	> 64 µg/mL	> 64 µg/mL	> 64 µg/mL	> 64 µg/mL	> 64 µg/mL	64 µg/mL (≈ 163 µM)
Cc1nc(-c2ccc3ccccc3c2)sc1-c1ccnc(N2CCC[C@H]2CO)n1	> 64 µg/mL	> 64 µg/mL	> 64 µg/mL	> 64 µg/mL	> 64 µg/mL	64 µg/mL (≈ 159 µM)
Cc1nc(-c2ccc3ccccc3c2)sc1-c1ccnc(N2CCC(N)C2)n1 (configuration not stated)	> 64 µg/mL	8 µg/mL (≈ 20.6 µM)	> 64 µg/mL	> 64 µg/mL	8 µg/mL (≈ 20.6 µM)	16 µg/mL (≈ 41.3 µM)
Cc1nc(-c2ccc3ccccc3c2)sc1-c1ccnc(NCCCN)n1	> 64 µg/mL	> 64 µg/mL	> 64 µg/mL	> 64 µg/mL	> 64 µg/mL	64 µg/mL (≈ 170 µM)
Cc1nc(-c2ccc3ccccc3c2)sc1-c1ccnc(NCCCO)n1	> 64 µg/mL	> 64 µg/mL	> 64 µg/mL	> 64 µg/mL	> 64 µg/mL	64 µg/mL (≈ 170 µM)
Cc1nc(-c2ccc3ccccc3c2)sc1-c1ccnc(NC[C@@H](O)CO)n1	> 64 µg/mL	> 64 µg/mL	> 64 µg/mL	> 64 µg/mL	> 64 µg/mL	64 µg/mL (≈ 163 µM)
Cc1nc(-c2ccc3ccccc3c2)sc1-c1ccnc(NC(CO)CO)n1	64 µg/mL (≈ 163 µM)	> 64 µg/mL	> 64 µg/mL	> 64 µg/mL	> 64 µg/mL	64 µg/mL (≈ 163 µM)
Cc1nc(-c2ccc3ccccc3c2)sc1-c1ccnc(N2CC[C@@H](N(C)C)C2)n1	> 64 µg/mL	32 µg/mL (≈ 77 µM)	64 µg/mL (≈ 154 µM)	> 64 µg/mL	64 µg/mL (≈ 154 µM)	64 µg/mL (≈ 154 µM)
Cc1nc(-c2ccc3ccccc3c2)sc1-c1ccnc(N2CCC[C@@H]2CO)n1	32 µg/mL (≈ 79.5 µM)	> 64 µg/mL	> 64 µg/mL	> 64 µg/mL	> 64 µg/mL	64 µg/mL (≈ 159 µM)
Cc1nc(-c2ccc3ccccc3c2)sc1-c1ccnc(N[C@H]2CC[C@H](N)CC2)n1	> 64 µg/mL	8 µg/mL (≈ 19.3 µM)	> 64 µg/mL	> 64 µg/mL	16 µg/mL (≈ 38.5 µM)	32 µg/mL (≈ 77 µM)
